The share remaining is what is left of the initial amount, in per cent. Low readings indicate a greater loss, high ones greater stability.

A short description of data set [1]: in vitro. Conditions: human, liver microsomes. On the technique in general: Liver microsomes are vesicles of endoplasmic reticulum, rich in cytochrome P450 enzymes.
The nature of data set [2]: in vitro. To be noted: mouse, liver microsomes.

Turning to `O=C1N[C@H](c2cncc(C#CC3CCOC3)c2)[C@@H](c2cccc(F)c2)O1` (stereo not given in full), the share remaining at 10 min in “in vitro [1]” is 93%; in the data set “in vitro [2]” it was 63%.
Consider `O=C1N[C@H](c2cncc(C#Cc3ccccc3)c2)[C@@H](c2cccc(F)c2)O1`, for which the share remaining at 10 min turned out to be 76% in the data set “in vitro [1]” and 71% in the data set “in vitro [2]”.
In the same order, the values of `O=C1N[C@H](c2cncc(C#C[C@H]3C[C@H](F)C3)c2)[C@@H](c2cccc(F)c2)O1` are 81% and 37%.
Take `C[C@]1(O)C[C@H](C#Cc2cncc([C@H]3NC(=O)O[C@@H]3c3cccc(F)c3)c2)C1`: the amount remaining at 10 min in the data set “in vitro [1]” is 88%; in the data set “in vitro [2]” it was 78%.
The matching figures for `C[C@]1(O)C[C@@H](C#Cc2cncc([C@H]3NC(=O)O[C@@H]3c3cccc(F)c3)c2)C1`: 95% and 81%.
For the compound `O=C1N[C@H](c2cncc(C#CC3CC(F)(F)C3)c2)[C@@H](c2ccc(F)cc2F)O1`, the amount remaining at 10 min in the data set “in vitro [1]” amounted to 100%; in “in vitro [2]”, 84%.
The matching figures for `O=C1N[C@H](c2cncc(C#C[C@H]3C[C@@H](O)C3)c2)[C@@H](c2cccc(F)c2)O1`: 100% and 51%.
The matching figures for `O=C1N[C@H](c2cncc(C#C[C@H]3C[C@H](O)C3)c2)[C@@H](c2cccc(F)c2)O1`: 100% and 74%.
As to `O=C1N[C@H](c2cncc(C#C[C@H]3C[C@@H](F)C3)c2)[C@@H](c2cccc(F)c2)O1`, the share remaining at 10 min in the data set “in vitro [1]” was 83%; in the data set “in vitro [2]”, 57%.
As to `O=C1N[C@H](c2cncc(C#CC3CC3)c2)[C@@H](c2cccc(F)c2)O1`, the amount remaining at 10 min in the data set “in vitro [1]” is 81%; in the data set “in vitro [2]”, 69%.

For the origin of these results see ChEMBL document CHEMBL3868623, “Difluorocyclobutylacetylenes as positive allosteric modulators of mGluR5 with reduced bioactivation potential” (Bioorg Med Chem Lett, 2016).
